Measurements as given in patent publication EP4389107A1, “METHOD OF PREPARATION OF COSMETIC C[…] […] AND COSMETIC C[…] […]” (Aero-Bw K. Domagala Sp. Jawna, priority 2022, dated 2024).
Several values for one entry are separate records, joined by “and”; a condition that tells them apart may be missing. Equal values may be shown once.

Tested on: Salmonella typhimurium TA98
Assay: Ames test, strain TA98
Assay type: cell-based
Conditions: positive control at 2 µg/mL
Experimental: The aim of the study was to assess the mutagenic potential of three extracts obtained from stem cells using two strains of Salmonella typhimurium carrying two types of mutations: TA 98-reading frame shift and TA 100-base pair substitution.
The experimental procedure was carried out basing on the manufacturer's experimental protocol (Xenometrix).

Compound: O=[N+]([O-])c1ccc2c(c1)Cc1ccccc1-2 [2-nitrofluorene (2-NF), 2-nitrofluorene]
- MOI (Multiplicity of induction compared to baseline): 6.9 and 5.6
